{
  "source": "patent US20230173098A1",
  "about": "“NANOPARTICLE COMPLEX FOR ORAL ADMINISTRATION AND USES THEREOF” (IUCF-HYU (Industry-University Cooperation Foundation …, priority 2021, published 2023)",
  "key": {"[1]": {"assay": "Surface charge measurement (Zetasizer Nano ZS)", "format": "physicochemical", "details": "mean±SEM, n=3, in mV (unit assumed)"}, "[2]": {"assay": "Hydrophobic assay (water/octanol phase transition, absorbance at 400 nm and 671 nm)", "format": "physicochemical", "details": "dissolved in DW, octanol added"}, "[3]": {"assay": "Photobleaching of Ce6 fluorescence under PDT laser (671 nm)", "format": "physicochemical", "details": "10 minutes PDT laser 671 nm; Ce6 equivalent 2.5 μM in ethanol", "protocol": "In this case, each sample (Ce6 equivalent concentration of 2.5 μM) was dissolved in ethanol and irradiated with a PDT laser (MRL-III-671, 671±1 nm, China) for 10 minutes, and then the photobleaching of Ce6 fluorescence (λ excitation/λ emission=400 nm/671 nm) of each sample was measured according to laser irradiation time, and the results are illustrated in FIG. 10."}, "Caco-2 cell monolayer": {"tested_on": "Caco-2 cell monolayer", "format": "in vitro ADME, human", "protocol": "Specifically, small intestine […] cells (Caco-2) were inoculated onto a Transwell insert with a diameter of 6.5 mm and a pore size of […] (seeding density: 2×10^4 cells/insert; Corning, Inc., Corning, N.Y., USA).\nAfter the Caco-2 were incubated for approximately 2 to 3 weeks in a CO2 incubator, trans epithelial electrical resistance (TEER) was measured using a voltmeter (EVOM^2; World Precision Instruments, Sarasota, Fla., USA) to confirm tight junctions. In this case, the TEER value […] was used for the assay. […] During the treatment, TEER values were measured at each designated time, and the results are illustrated in FIG. 18.\nPretreated-Lf/Ce6-AuNP-Lf was used to examine passive transport excluding lactoferrin receptor (LfR)-mediated transport.\nReferring to this, Lf pretreatment (pretreated-Lf) was performed to saturate LfR expressed in the Caco-2 cell monolayer, and two hours after Lf pretreatment (pretreated-Lf), the medium was exchanged with a Ce6-AuNP-Lf-containing medium."}, "[4]": {"tested_on": "brain tumor cells (U87MG)", "assay": "Uptake into brain tumor cells (confocal, FACS)", "format": "cell-based, human", "details": "Ce6 equivalent 2.5 μM, 18 hours", "protocol": "Next, DAPI mounting medium (Vector Laboratories, Inc., Burlingame, Calif., USA) was used and the intracellular Ce6 fluorescence was observed under a confocal microscope (TCS SP5, Leica, Germany).\nMeanwhile, flow cytometry (FACS Calibur™; BD Biosciences, Franklin Lakes, N.J.) was used to quantify the intracellular Ce6 fluorescence. […] After washing three times with PBS, the cells were detached with trypsin/EDTA, centrifuged for 3 minutes at 1000 rpm, and then analyzed with FACS."}, "[5]": {"tested_on": "brain tumor (U87MG) cells", "assay": "Phototherapy of brain tumor cells: viability, Annexin V/PI apoptosis, DCFH-DA ROS", "format": "cell-based, human", "details": "PDT+PTT, 2.5 minutes each", "protocol": "Cell viability was measured with an EZ-Cytox kit.\nMeanwhile, the intracellular ROS generation by laser irradiation was measured using the fluorescent probe DCFH-DA according to the manufacturer's instructions. Annexin V-DY-634/PI apoptosis was used to evaluate apoptosis. That is, brain tumor (U87MG) cells were suspended in 400 μL binding buffer, and then stained with Annexin V-DY-634 (5 μL) at 2 to 8° C. for 15 minutes. Next, PI (5 μL) was added and the cells were incubated for 5 min. In this case, brain tumor (U87MG) cells were analyzed using FACS."}},
  "data": [
    {"substance": "Chlorin e6 [Ce6]", "values": [
      {"measurement": "surface charge", "setting": "[1]", "value": "−9.4±4.3"},
      {"measurement": "hydrophobicity", "setting": "[2]", "value": "hydrophobic"},
      {"measurement": "Ce6 fluorescence after PDT laser irradiation (photobleaching)", "setting": "[3]", "value": "57.0±5.6", "unit": "%"},
      {"measurement": "transmittance / amount transported across the barrier", "setting": "Caco-2 cell monolayer", "value": "about 47.6%"},
      {"measurement": "amount of uptake into the cells (FACS, intracellular Ce6 fluorescence)", "setting": "[4]", "value": "43.6±2.2"},
      {"measurement": "apoptotic cell population (Annexin-V+/PI+)", "setting": "[5]", "value": 22.0, "unit": "%"}
    ]}
  ]
}
